Measurements from publication PMC12736086, “Synthesis and In Vitro Evaluation of Anticancer Activity of Fluorophenyl Derivatives of 1,3,4-Thiadiazole Against Estrogen-Dependent Breast Cancer” (Molecules, 2025).

Key:
[1] = system: MCF-7 cell line; design: method as in PMID 35335177; conditions: MCF-7, previous study; cited from earlier work
[2] = system: MCF-7 (estrogen-dependent) breast cancer cell line; experiment: MTT assay, cell viability of MCF-7 cells; format: cell-based; conditions: Homo sapiens, MCF7, 24 h, 24 h exposure
Method: (§1) To investigate how the tested compounds affect cell viability, experiments were performed using two human breast cancer cell lines—MDA-MB-231 and MCF-7 and human fibroblasts—HMF (normal cells). The MDA-MB-231 cell line represents a highly invasive, triple-negative breast cancer (TNBC) model, lacking estrogen receptor (ER), progesterone receptor (PR), and HER2 expression. In contrast, MCF-7 cells are estrogen receptor-positive (ER+), less invasive, and hormone-responsive, making them a well-established model for luminal-type breast cancer and hormone therapy research. Anastrozole, an aromatase inhibitor, served as a reference drug. The MTT assay applied in this study relies on mitochondrial dehydrogenase enzymes to reduce a water-soluble […] tetrazolium salt (3-(4,5-dimethylthiazol-2-yl)-2,5-diphenyltetrazolium bromide, or MTT) into a dark blue, insoluble formazan compound. The amount of this formazan product formed is directly related to the mitochondrial activity of viable, metabolically active cells in the sample. The efficacy of the compounds was assessed based on IC50 values and analysis of the concentration-dependence of cell survival.
(§2) The experiments were conducted using MDA-MB-231 and MCF-7 human breast cancer cell lines, as well as human fibroblasts (HMF). All cell lines were sourced from the American Type Culture Collection (ATCC; Manassas, VA, USA). Cells were maintained under standard culture conditions (37 °C, 5% CO2). Breast cancer cells were grown in Dulbecco’s Modified Eagle Medium (DMEM) supplemented with 10% fetal bovine serum (FBS), while fibroblasts were cultured in Eagle’s Minimum Essential Medium (EMEM) with the same serum concentration. To prevent microbial contamination, penicillin (100 U/mL) and streptomycin (100 µg/mL) were added to the media. All cell culture reagents were obtained from Sigma Aldrich (St. Louis, MO, USA).
(§3) Cell viability was evaluated using the MTT assay kit (Sigma Aldrich, St. Louis, MO, USA). On day one of the experiment, MCF-7, MDA-MB-231 cells and human fibroblasts were seeded into 96-well culture plates (Nunc, Roskilde, Denmark) at a density of 1 × 10^5 cells/mL (human fibroblast cell line) and 5 × 10^4 cells/mL (MCF-7, MDA-MB-231 cell lines). After 24 h of incubation, the culture medium was removed and replaced with serial dilutions of test compounds or anastrozole (1, 12.5, 25, 50, 100 µM). Control wells received fresh medium only. Cells were incubated for another 24 h under standard conditions. Following this, 15 µL of MTT solution (5 mg/mL) was added to each well and incubated for 3 h. Afterward, a 10% sodium dodecyl sulfate (SDS) solution was added, and the plates were left overnight. On the following day, absorbance was measured at 570 nm using a microplate reader (Epoch, BioTek Instruments, Inc., Winooski, VT, USA) with Gen5 software (version 2.01, BioTek Instruments).
(§4) Data were analyzed using GraphPad software version 5.01 (GraphPad Software, Inc., La Jolla, CA, USA). Results are expressed as means ± standard deviation (±SD). IC50 values were calculated using the IC50 calculator provided by AAT Bioquest.

[3] = system: MDA-MB-231 (triple-negative) breast cancer cell line; experiment: MTT assay, cell viability of MDA-MB-231 cells; format: cell-based, human; conditions: 24 h exposure
Method: as §1, §2, §3, §4

[4] = system: human fibroblasts (HMF); experiment: MTT assay, cell viability of normal HMF fibroblasts; format: cell-based; conditions: Fibroblast, 24 h, 24 h exposure
Method: as §1, §2, §3, §4

| SMILES | IC50 [2] [µM] | IC50 ([3]; Homo sapiens, MDA-MB-231, 24 h) [µM] | IC50 [3] [µM] | IC50 [1] [µM] | IC50 [4] [µM] |
| --- | --- | --- | --- | --- | --- |
| COc1cccc(-c2nnc(Nc3ccccc3C(F)(F)F)s2)c1 [2-(2-trifluoromethylphenylamino)-5-(3-methoxyphenyl)-1,3,4-thiadiazole] | – | – | – | 49.6 | – |
| Fc1cccc(-c2nnc(Nc3ccccc3I)s2)c1 [A1, 5-(3-Fluorophenyl)-2-(2-iodophenylamino)-1,3,4-thiadiazole] | 66 | > 100 | – | – | 51 |
| Fc1cccc(-c2nnc(Nc3ccccc3Br)s2)c1 [A2, 2-(2-Bromophenylamino)-5-(3-fluorophenyl)-1,3,4-thiadiazole] | 52.4 | > 100 | – | – | 36.5 |
| Fc1cccc(-c2nnc(Nc3ccccc3Cl)s2)c1 [A3, 2-(2-Chlorophenylamino)-5-(3-fluorophenyl)-1,3,4-thiadiazole] | 54.8 | > 100 | – | – | 36.9 |
| CC(C)(C#N)c1cc(Cn2cncn2)cc(C(C)(C)C#N)c1 [Anastrozole, reference compound] | > 100 | ≥ 100 | > 100 | – | > 100 |

Second part, led by results:

| IC50 [2] [µM] | IC50 ([3]; Homo sapiens, MDA-MB-231, 24 h) [µM] | IC50 [3] [µM] | SMILES | IC50 [1] [µM] | IC50 [4] [µM] |
| --- | --- | --- | --- | --- | --- |
| 53.9 | > 100 | – | Fc1ccc(-c2nnc(Nc3ccccc3I)s2)cc1 [B1, 5-(4-Fluorophenyl)-2-(2-iodophenylamino)-1,3,4-thiadiazole] | – | 45.6 |
| 82.5 | > 100 | – | Fc1ccc(-c2nnc(Nc3ccccc3Br)s2)cc1 [B2, 2-(2-Bromophenylamino)-5-(4-fluorophenyl)-1,3,4-thiadiazole] | – | 41.8 |
| 54.1 | > 100 | – | Fc1ccc(-c2nnc(Nc3ccccc3Cl)s2)cc1 [B3, 2-(2-Chlorophenylamino)-5-(4-fluorophenyl)-1,3,4-thiadiazole] | – | > 100 |
